In the supplement of paper PMC11451515:

Tested on: SEM cells
Test: cell viability relative to DMSO control; higher = less cytotoxic
Conditions: 48 h
Procedure, shortened: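 NOMO1 or SEM (500 cells/well) or P12-Ichikawa (1000 cells/well) leukemia cells were adapted for at least four passages in each medium. They were seeded in 1536-well plates (5 μl) and pin-dosed with library compounds in DMSO over an 11-point threefold series, 47 μM to 0.79 nM. CellTiter-Glo One luminescence was read after 48 h at 37°C. Viability is the per-plate percentage relative to DMSO wells, with cell-free wells as background.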

[1] = RPMI 5 mM glucose + 10% FBS, 0.000781 µM
[2] = RPMI 5 mM glucose + 10% FBS, 0.00234 µM
[3] = RPMI 5 mM glucose + 10% FBS, 0.00702 µM
[4] = RPMI 5 mM glucose + 10% FBS, 0.0211 µM
[5] = RPMI 5 mM glucose + 10% FBS, 0.0632 µM
[6] = RPMI 5 mM glucose + 10% FBS, 0.19 µM
[7] = RPMI 5 mM glucose + 10% FBS, 0.569 µM
[8] = RPMI 5 mM glucose + 10% FBS, 1.71 µM
[9] = RPMI 5 mM glucose + 10% FBS, 5.12 µM
[10] = RPMI 5 mM glucose + 10% FBS, 15.4 µM
[11] = RPMI 5 mM glucose + 10% FBS, 46.1 µM
[12] = RPMI 5 mM glucose + 10% dialyzed FBS, 0.000781 µM
[13] = RPMI 5 mM glucose + 10% dialyzed FBS, 0.00234 µM
[14] = RPMI 5 mM glucose + 10% dialyzed FBS, 0.00702 µM
[15] = RPMI 5 mM glucose + 10% dialyzed FBS, 0.0211 µM
[16] = RPMI 5 mM glucose + 10% dialyzed FBS, 0.0632 µM
[17] = RPMI 5 mM glucose + 10% dialyzed FBS, 0.19 µM
[18] = RPMI 5 mM glucose + 10% dialyzed FBS, 0.569 µM
[19] = RPMI 5 mM glucose + 10% dialyzed FBS, 1.71 µM
[20] = RPMI 5 mM glucose + 10% dialyzed FBS, 5.12 µM
[21] = RPMI 5 mM glucose + 10% dialyzed FBS, 15.4 µM
[22] = RPMI 5 mM glucose + 10% dialyzed FBS, 46.1 µM
[23] = HPLM + 10% dialyzed FBS, 0.000781 µM
[24] = HPLM + 10% dialyzed FBS, 0.00234 µM
[25] = HPLM + 10% dialyzed FBS, 0.00702 µM
[26] = HPLM + 10% dialyzed FBS, 0.0211 µM
[27] = HPLM + 10% dialyzed FBS, 0.0632 µM
[28] = HPLM + 10% dialyzed FBS, 0.19 µM
[29] = HPLM + 10% dialyzed FBS, 0.569 µM
[30] = HPLM + 10% dialyzed FBS, 1.71 µM
[31] = HPLM + 10% dialyzed FBS, 5.12 µM
[32] = HPLM + 10% dialyzed FBS, 15.4 µM
[33] = HPLM + 10% dialyzed FBS, 46.1 µM

Row | Compound | cell viability [1] | cell viability [2] | cell viability [3] | cell viability [4] | cell viability [5] | cell viability [6] | cell viability [7] | cell viability [8] | cell viability [9] | cell viability [10] | cell viability [11] | cell viability [12] | cell viability [13] | cell viability [14] | cell viability [15] | cell viability [16] | cell viability [17] | cell viability [18] | cell viability [19] | cell viability [20] | cell viability [21] | cell viability [22] | cell viability [23] | cell viability [24] | cell viability [25] | cell viability [26] | cell viability [27] | cell viability [28] | cell viability [29] | cell viability [30] | cell viability [31] | cell viability [32] | cell viability [33]
1 | CC(C)[C@H](C(=O)Nc1ccc(C(=O)NO)cc1)c1ccccc1 | 115% | 116% | 126% | 140% | 139% | 148% | 133% | 74.7% | 11.3% | 9.31% | 9.34% | 105% | 101% | 121% | 121% | 120% | 120% | 111% | 56.6% | 8.81% | 8.39% | 8.47% | – | – | – | – | – | – | – | – | – | – | –
2 | COc1ccc(-n2c(C)c([N+](=O)[O-])c3ccc(O)cc32)cc1 | 102% | 103% | 111% | 107% | 120% | 109% | 108% | 122% | 127% | 121% | 98.5% | – | – | – | – | – | – | – | – | – | – | – | – | – | – | – | – | – | – | – | – | – | –
3 | C[C@H](NC(=O)[C@@H](O)c1cc(F)cc(F)c1)C(=O)N[C@@H]1C(=O)N(C)c2ccccc2-c2ccccc21 | 120% | 121% | 120% | 135% | 122% | 128% | 107% | 115% | 111% | 121% | 85.9% | – | – | – | – | – | – | – | – | – | – | – | – | – | – | – | – | – | – | – | – | – | –
4 | CC(C)(C)[C@]1(O)C[C@@H]2OC(=O)C[C@@]23C(=O)O[C@@H]2OC(=O)[C@H](O)C213 (stereo partly specified) | 110% | 139% | 120% | 148% | 114% | 108% | 113% | 90.4% | 118% | 134% | 125% | – | – | – | – | – | – | – | – | – | – | – | 113% | 108% | 109% | 104% | 110% | 99.1% | 104% | 111% | 105% | 113% | 115%
5 | Nc1nccc(-c2ccc3noc(-c4ccc(Cl)cc4)c3c2)n1 | 98.5% | 103% | 99.3% | 102% | 93.9% | 116% | 112% | 104% | 89.1% | 88.9% | 92.7% | 118% | 119% | 119% | 119% | 104% | 115% | 126% | 119% | 108% | 114% | 108% | – | – | – | – | – | – | – | – | – | – | –
6 | Nc1cc(N2CCCCC2)nc(N)[n+]1[O-] | 100% | 125% | 108% | 110% | 106% | 116% | 121% | 78.9% | 122% | 58.2% | 120% | 115% | 132% | 114% | 116% | 120% | 129% | 108% | 79.8% | 135% | 83.9% | 133% | 98.9% | 122% | 115% | 112% | 124% | 120% | 121% | 75.6% | 124% | 61.5% | 127%
7 | CC(=O)OCC(=O)[C@@]1(O)CC[C@H]2[C@@H]3CCC/4=C/C(=O)/C=C\[C@]4(C)[C@H]3[C@@H](O)C[C@]12C | 121% | 124% | 130% | 124% | 122% | 99.3% | 110% | 81.4% | 60.4% | 128% | 121% | – | – | – | – | – | – | – | – | – | – | – | 117% | 106% | 104% | 112% | 103% | 78.8% | 69.3% | 52.7% | 48.2% | 88% | 90.5%
8 | COc1cc2c(cc1O)CCC1C2CC[C@@]2(C)C1CC[C@@H]2O (stereo partly specified) | 120% | 108% | 129% | 22% | 124% | 125% | 107% | 84.2% | 49.1% | 23.5% | 21.7% | 116% | 118% | 126% | 24.6% | 118% | 123% | 108% | 88.7% | 40.2% | 26.5% | 28.2% | 88.7% | 114% | 98.4% | 25.9% | 108% | 113% | 95.8% | 73.2% | 40.7% | 31.4% | 26.2%
9 | Cc1n[nH]c2ccc(-c3cncc(OC[C@@H](N)Cc4ccccc4)c3)cc12 | 105% | 105% | 116% | 110% | 102% | 98% | 92.7% | 64% | 7.19% | 4.27% | 3.39% | – | – | – | – | – | – | – | – | – | – | – | 117% | 124% | 117% | 108% | 123% | 98.2% | 71.6% | 56.3% | 14.5% | 5.34% | 4.07%
10 | C=C1CCC2[C@](C)(CO)C(O)CC[C@]2(C)C1C/C=C1/C(=O)OCC1O (stereo partly specified) | 125% | 115% | 118% | 97.8% | 108% | 99.2% | 88.3% | 87.1% | 81.5% | 84.8% | 85.6% | 129% | 120% | 121% | 115% | 113% | 116% | 109% | 106% | 109% | 96.3% | 92.3% | 122% | 122% | 112% | 126% | 116% | 111% | 109% | 105% | 103% | 117% | 93.3%
